Experiment [1] relates to Hgsnat^P304L MPS IIIC mice. Nature of the experiment: Y-Maze test. The experiment is classed as in vivo, mouse. To be noted: chronic daily intranasal 50 μg/kg BW from 3 weeks. How it is done:
The spontaneous alternation behavior, spatial working memory and exploratory activity of mice were evaluated using a white Y-maze as follows. The maze consisted of three identical white Plexiglas arms (40×10×20 cm, 120° apart) under dim lighting conditions. Each mouse was placed at the end of one arm, facing the center, and allowed to explore the maze for 8 min. All experiments were performed at the same time of the day and by the same investigator to avoid circadian and handling bias. Sessions were video-recorded and arm entries were scored by a trained observer, unaware of the mouse genotype or treatment. Successful alternation was defined as consecutive entries into a new arm before returning to the two previously visited arms.
Alternation was calculated as: [number of alternations/total number of arm entries−2]×100.
(§1) Starting from 3 weeks of age, WT C57B16 and homozygous Hgsnat^P304L male and female mice were randomly divided in treatment and control groups (6-13 mice/sex/genotype/treatment; see Table I). The control group was daily administered with saline (5 μL to each nostril), while for the treatment group, saline was supplemented with 125 µg of AVP6/mL, which would result in a dose of approximately 50 μg/kg BW/day. […] When such signs were detected, the mice were studied by ERG and sacrificed within 1-2 days. […]

Experiment [2] is described as follows: Effect on memory and learning after intranasal administration (earlier work). The experiment is classed as in vivo. The conditions noted are these: 50 μg/kg BW intranasal; mice and rats.
In experiment [3] the test system is Hgsnat^P304L mice. The experiment is described as follows: Survival / onset of lethal urinary retention under chronic daily treatment. It is filed as in vivo, mouse. The conditions noted are these: chronic daily 50 μg/kg BW; AVP6-treated Hgsnat^P304L mice. How it is done:
as §1, with “BW/day. The peptide formulation was prepared once, aliquoted and kept frozen at −80° C. until use. At 4 months, all mice were studied by EPM, OF, YM and NOR behavioral tests. Administration of the drug or saline was continued through the days on which the assays were conducted. Then approximately at 5 months 4-5 mice in each group were sacrificed.” for “BW/day.”
Unlike human MPS III patients, Hgsnat^P304L mice at the age of approximately 8 months develop urinary retention resulting in abdominal distension and requiring humane euthanasia. […] Previously we determined the average survival age of Hgsnat^P304L mice as 42 weeks. To test whether the AVP6 treatment delayed development of this phenotype, mice in both treatment and vehicle groups were examined for the signs of urinary retention on a daily basis, starting from the age of 7 months, and immediately sacrificed, when abdominal distension was detected. […]

Experiment [4] deals with Hgsnat^P304L mice. The experiment is described as follows: Wet spleen weight at sacrifice (splenomegaly). It is filed as in vivo, mouse. The conditions noted are these: chronic daily 50 μg/kg BW; Hgsnat^P304L mice at sacrifice (9.5-11 months); vs saline.
Experiment [5] concerns somatosensory cortex and hippocampus of Hgsnat^P304L mice. Nature of the experiment: Brain immunohistochemistry after chronic treatment (synaptic markers, astrocytosis, microgliosis, lysosomal puncta). It is filed as in vivo, mouse. How it is done: Mouse brains were collected from animals perfused with 4% PFA in PBS and post-fixed in 4% PFA in PBS overnight. Brains were cryopreserved in 30% sucrose for 2 days at 4° C., embedded in Tissue-Tek® OCT Compound and stored at −80° C. Brains were cut in 40 μm-thick sections and stored in cryopreservation buffer (0.05 M sodium phosphate buffer pH 7.4, 15% sucrose, 40% ethylene glycol) at −20° C. pending immunohistochemistry. Mouse brain sections were washed 3 times with PBS and permeabilized/blocked by incubating in 5% bovine serum albumin (BSA), 0.3% Triton X-100 in PBS for 1 h at room temperature. Incubation with primary antibodies, diluted in 1% BSA, 0.3% Triton X-100 in PBS, was performed overnight at 4° C.
The mouse brain sections were washed 3 times with PBS and counterstained with Alexa Fluor-labeled secondary antibodies (dilution 1:400) for 2 h at room temperature. After washing 3 times with PBS, the mouse brain sections were treated with TrueBlack® Lipofuscin Autofluorescence Quencher (Biotium, 23007, dilution 1:10) for 1 min, and then again washed 3 times with PBS. The slides were mounted with Prolong Gold Antifade mounting reagent with DAPI (Invitrogen, P36935) and analyzed using Leica DM 5500 Q upright confocal microscope (10×, 40×, and 63× oil objective, N.A. 1.4). Images were processed and quantified using ImageJ 1.50i software (National Institutes of Health. Bethesda, MD, USA) in a blinded fashion. Panels were assembled with Adobe Photoshop.
Starting from 3 weeks of age, WT C57B16 and homozygous Hgsnat^P304L male and female mice were randomly divided in treatment and control groups (6-13 mice/sex/genotype/treatment; see Table I). The control group was daily administered with saline (5 μL to each nostril), while for the treatment group, saline was supplemented with 125 µg of AVP6/mL, which would result in a dose of approximately 50 μg/kg BW/day. The peptide formulation was prepared once, aliquoted and kept frozen at −80° C. until use. At 4 months, all mice were studied by EPM, OF, YM and NOR behavioral tests. Administration of the drug or saline was continued through the days on which the assays were conducted. Then approximately at 5 months 4-5 mice in each group were sacrificed. Their blood plasma was collected, and their tissues were either snap-frozen or fixed and cryopreserved to analyze CNS pathology as described above. For the remaining mice, treatment was continued and their behaviour was studied again at the age of 6 months using OF. NOR and YM tests. Starting from the age of 8 months, Hgsnat^P304L treated and untreated mice were daily studied for the signs of urinary retention. When such signs were detected, the mice were studied by ERG and sacrificed within 1-2 days. Finally, the remaining treated and untreated WT mice were studied by ERG and sacrificed at the end of the study, approximately at 10 months of age.
After completion of the behavioural analysis at 4 months, 50% of mice in each group were sacrificed for analysis of CNS pathology and biochemical testing. To study the effect of the treatment on synaptic architecture, we have stained the brain sections for presynaptic (VGLUT1) and postsynaptic (PSD-95, BDNF) markers and quantified their levels in the CA1 area of hippocampi and in layers 3-4 of somatosensory cortex.
The terminal CNS pathology was studied using the same set of biomarkers as at 4 months, either by IHC (astrocytosis, microgliosis, synaptic markers SYN1, PSD-95, […], BDNF) or by biochemical (total β-hexosaminidase activity, expression levels of inflammatory cytokines) assays.

[6] abbreviates: chronic daily 50 μg/kg BW from 3 weeks, Hgsnat^P304L mice at sacrifice (10-11 months).

Entries after “also recorded” stand apart in the source; their conditions may differ. No end group written: not given here.

For “AVP6: N-terminally acetylated Semax, a nootropic peptide having the amino acid sequence of MEHFPGP (SEQ ID NO:1) (Ac-MEHFPGP)”, the “spatial memory (alternation between arms), Y-Maze” value in experiment [1] (Hgsnat^P304L mice at 4 months) was “a significant difference between saline-treated and peptide-treated mice was observed only, when we pooled the data for both sexes together; also recorded: rescues deficits in spatial and short-term memory; also recorded: show the rescue of all above deficits”. For the same substance, in experiment [1] (Hgsnat^P304L mice at 6 months), the “spatial memory (percent of alternation between arms), Y-Maze” value is “demonstrated alternation similar to that of the WT mice; also recorded: partially rescues deficits in spatial and short-term memory; also recorded: show rescue of all above deficits”. Also, the “time to maximal effect on memory and learning after intranasal administration” value in experiment [2] was at most 24 h. Besides, the “average survival age / life span” value in experiment [3] was 49 weeks. Moreover, in experiment [4], the “spleen weight / splenomegaly” value was “significantly lower spleen weight”. In addition, the “levels of synaptic markers VGLUT1, PSD-95 and BDNF in CA1 hippocampus and somatosensory cortex” value in experiment [5] (chronic daily 50 μg/kg BW from 3 weeks, Hgsnat^P304L mice at 5 months) is “are rescued”. Moreover, the “GFAP+ astrocytes and CD68+ activated microglia in cortex and hippocampus” value in experiment [5] (chronic daily 50 μg/kg BW from 3 weeks, Hgsnat^P304L mice at 5 months, vs saline) was “normalizes astrocytosis and microgliosis; also recorded: are reduced”. Also, in experiment [5] (setting [6]), the “levels of post-synaptic proteins PSD-95 and BDNF” value was “completely recovered; also recorded: are rescued in hippocampus and partially rescued in the somatosensory cortex”; the “levels of presynaptic proteins GLUT1 (VGLUT1) and SYN1” value is “either increased in the AVP6-treated as compared with saline-treated Hgsnat^P304L mice, or remained significantly lower than those in WT animals; also recorded: are rescued in hippocampus and partially rescued in the somatosensory cortex”. Also, in experiment [5] (chronic daily 50 μg/kg BW, Hgsnat^P304L mice at 5 months, vs saline), the “levels and sizes of LAMP2+/HS+ or GM2-ganglioside+ lysosomal puncta in cortical/hippocampal neurons” value was “remained similar”. Further, in experiment [5] (chronic daily 50 μg/kg BW, Hgsnat^P304L mice at 10-11 months, vs saline, cortex levels remained above WT), the “markers of astrocytosis and microgliosis, GFAP and CD68” value was “significantly reduced; also recorded: reduces it; also recorded: reduces levels of activated GFAP+ astrocytes in the cortex (D) and CD68+ microglia in both cortex and hippocampus”. In experiment [5] (chronic daily 50 μg/kg BW, Hgsnat^P304L mice at terminal timepoint), the “LAMP2 levels in brain sections compared with WT” value was “remained significantly increased”.

Source of the values: US20240043473A1, “NOOTROPIC PEPTIDES FOR TREATING LYSOSOMAL STORAGE DISEASES” (Phoenix Nest Inc., priority 2021, published 2024).
